We go through 14 compounds from the NIST ThermoML archive (doi:10.1016/j.tca.2004.08.013).

Molecules are shown by their SMILES. ± gives the expanded uncertainty stated by the source.

For data set [1] the following is noted: 101.33 kPa, Liquid.
Data set [2] can be described thus: xn = mol fraction of the nth substance listed. To be noted: 101.3 kPa, Liquid.

Consider `CCCN` [propan-1-amine], for which the mass density (usually the mass of a sample divided by its volume) came out at 706.1 ± 0.84 kg/m3 in data set [1] (303.15 K) and 696.04 ± 0.86 kg/m3 in data set [1] (313.15 K). The viscosity (commonly the resistance of a fluid to flow) in data set [1] (303.15 K) is given as 0.353 ± 0.007 mPa·s; in data set [1] (313.15 K), 0.313 ± 0.007 mPa·s.

`CCCCN(CCCC)CCCC` [tributylamine]: in data set [1] (303.15 K), the mass density is recorded as 770.21 ± 0.74 kg/m3 and the viscosity came to 1.167 ± 0.02 mPa·s. In addition, in data set [1] (313.15 K), the mass density turned out to be 763.11 ± 0.75 kg/m3 and the viscosity is 0.97 ± 0.017 mPa·s.

Take `CCCNCCC` [dipropylamine]: in data set [1] (303.15 K), the mass density is reported as 731.21 ± 0.8 kg/m3 and the viscosity was 0.512 ± 0.01 mPa·s. In data set [1] (313.15 K), the mass density is recorded as 726.15 ± 3 kg/m3 and the viscosity is on record as 0.423 ± 0.008 mPa·s.

Consider `CCN(CC)CC` [triethylamine], for which, in data set [1] (303.15 K), the mass density came out at 718.44 ± 0.82 kg/m3 and the viscosity came out at 0.33 ± 0.007 mPa·s.

As to `ClC(Cl)Cl` [trichloromethane], in data set [1] (303.15 K), the mass density is recorded as 1470.64 ± 1.2 kg/m3 and the viscosity was determined as 0.52 ± 0.009 mPa·s. Besides, in data set [1] (313.15 K), the mass density turned out to be 1448.43 ± 1.1 kg/m3 and the viscosity was determined as 0.471 ± 0.009 mPa·s.

For the compound `CCOC(C)=O` [ethyl acetate], in data set [1] (303.15 K), the mass density came to 888.42 ± 0.45 kg/m3 and the viscosity stood at 0.399 ± 0.008 mPa·s.

As to `Clc1ccccc1` [chlorobenzene], in data set [1] (303.15 K), the mass density is on record as 1095.49 ± 0.45 kg/m3 and the viscosity is given as 0.718 ± 0.012 mPa·s.

As to `CCCCNCCCC` [dibutylamine], in data set [1] (303.15 K), the mass density was determined as 752.28 ± 0.77 kg/m3 and the viscosity turned out to be 0.758 ± 0.013 mPa·s. Moreover, in data set [1] (313.15 K), the mass density is reported as 743.44 ± 0.78 kg/m3 and the viscosity turned out to be 0.665 ± 0.012 mPa·s.

`CCCCN` [1-butanamine] + ClC(Cl)(Cl)Cl: the mass density is reported as 1566.74 ± 1.5 kg/m3 in data set [2] (303.15 K, x1 = 0.0099); 1559.88 ± 1.5 kg/m3 in data set [2] (303.15 K, x1 = 0.0183); 1551.36 ± 1.5 kg/m3 in data set [2] (303.15 K, x1 = 0.0287); 1543.06 ± 1.5 kg/m3 in data set [2] (303.15 K, x1 = 0.0386); 1535.31 ± 1.5 kg/m3 in data set [2] (303.15 K, x1 = 0.0477); 1526.57 ± 1.4 kg/m3 in data set [2] (303.15 K, x1 = 0.0581). Moreover, the mass density came to 1518.67 ± 1.4 kg/m3 in data set [2] (303.15 K, x1 = 0.0675); 1511.52 ± 1.4 kg/m3 in data set [2] (303.15 K, x1 = 0.076); 1503.49 ± 1.4 kg/m3 in data set [2] (303.15 K, x1 = 0.0856); 1547.13 ± 1.5 kg/m3 in data set [2] (313.15 K, x1 = 0.0099); 1540.41 ± 1.5 kg/m3 in data set [2] (313.15 K, x1 = 0.0183); 1532.01 ± 1.4 kg/m3 in data set [2] (313.15 K, x1 = 0.0287). In addition, the mass density was found to be 1523.9 ± 1.4 kg/m3 in data set [2] (313.15 K, x1 = 0.0386); 1516.18 ± 1.4 kg/m3 in data set [2] (313.15 K, x1 = 0.0477); 1507.58 ± 1.4 kg/m3 in data set [2] (313.15 K, x1 = 0.0581); 1499.84 ± 1.4 kg/m3 in data set [2] (313.15 K, x1 = 0.0675); 1492.72 ± 1.4 kg/m3 in data set [2] (313.15 K, x1 = 0.076); 1484.69 ± 1.4 kg/m3 in data set [2] (313.15 K, x1 = 0.0856). Moreover, the viscosity worked out at 0.855 ± 0.012 mPa·s in data set [2] (303.15 K, x1 = 0.0099); 0.858 ± 0.012 mPa·s in data set [2] (303.15 K, x1 = 0.0183); 0.861 ± 0.012 mPa·s in data set [2] (303.15 K, x1 = 0.0287); 0.862 ± 0.012 mPa·s in data set [2] (303.15 K, x1 = 0.0386); 0.862 ± 0.012 mPa·s in data set [2] (303.15 K, x1 = 0.0477); 0.864 ± 0.012 mPa·s in data set [2] (303.15 K, x1 = 0.0581). The viscosity in data set [2] (303.15 K, x1 = 0.0675) was 0.866 ± 0.012 mPa·s; in data set [2] (303.15 K, x1 = 0.076), 0.869 ± 0.012 mPa·s; in data set [2] (303.15 K, x1 = 0.0856), 0.871 ± 0.012 mPa·s; in data set [2] (313.15 K, x1 = 0.0099) it was 0.763 ± 0.011 mPa·s; in data set [2] (313.15 K, x1 = 0.0183), 0.765 ± 0.011 mPa·s; in data set [2] (313.15 K, x1 = 0.0287) it was 0.768 ± 0.011 mPa·s. In addition, the viscosity was determined as 0.77 ± 0.011 mPa·s in data set [2] (313.15 K, x1 = 0.0386); 0.773 ± 0.011 mPa·s in data set [2] (313.15 K, x1 = 0.0477); 0.776 ± 0.011 mPa·s in data set [2] (313.15 K, x1 = 0.0581); 0.78 ± 0.011 mPa·s in data set [2] (313.15 K, x1 = 0.0675); 0.784 ± 0.011 mPa·s in data set [2] (313.15 K, x1 = 0.076); 0.786 ± 0.011 mPa·s in data set [2] (313.15 K, x1 = 0.0856).

Regarding `CCCCOC(C)=O` [butyl ethanoate], in data set [1] (303.15 K), the mass density worked out at 871.28 ± 0.48 kg/m3 and the viscosity was found to be 0.644 ± 0.011 mPa·s.

With `CCCN(CCC)CCC` [tripropylamine], in data set [1] (303.15 K), the mass density is on record as 749.15 ± 0.78 kg/m3 and the viscosity is recorded as 0.598 ± 0.011 mPa·s. In data set [1] (313.15 K), the mass density turned out to be 740.41 ± 0.79 kg/m3 and the viscosity is on record as 0.538 ± 0.01 mPa·s.

Turning to `ClC(Cl)(Cl)Cl` [tetrachloromethane], the mass density in data set [1] (303.15 K) was determined as 1574.78 ± 1.4 kg/m3; in data set [1] (313.15 K) it was 1555.02 ± 1.4 kg/m3. Also, the values for the viscosity in data set [1] (303.15 K) and in data set [1] (313.15 K) were 0.852 ± 0.014 mPa·s and 0.76 ± 0.013 mPa·s, respectively.

In the case of `CCC(C)=O` [butanone], in data set [1] (303.15 K), the mass density is given as 799.69 ± 0.61 kg/m3 and the viscosity is 0.365 ± 0.007 mPa·s.

Regarding `CCCCN` [1-butanamine], the mass density came out at 728.65 ± 0.81 kg/m3 in data set [1] (303.15 K) and 719.17 ± 0.82 kg/m3 in data set [1] (313.15 K). Also, the viscosity in data set [1] (303.15 K) was found to be 0.444 ± 0.009 mPa·s; in data set [1] (313.15 K) it was 0.393 ± 0.008 mPa·s.
